Assay results as given in patent US20080119515A1, “Heterocyclic Kinase Inhibitors: Methods of Use and Synthesis” (priority 2003, published 2008).

Molecular target: T1, ZAP-70 (Homo sapiens, UniProt P43403)
T1 sequence (P43403 1-619): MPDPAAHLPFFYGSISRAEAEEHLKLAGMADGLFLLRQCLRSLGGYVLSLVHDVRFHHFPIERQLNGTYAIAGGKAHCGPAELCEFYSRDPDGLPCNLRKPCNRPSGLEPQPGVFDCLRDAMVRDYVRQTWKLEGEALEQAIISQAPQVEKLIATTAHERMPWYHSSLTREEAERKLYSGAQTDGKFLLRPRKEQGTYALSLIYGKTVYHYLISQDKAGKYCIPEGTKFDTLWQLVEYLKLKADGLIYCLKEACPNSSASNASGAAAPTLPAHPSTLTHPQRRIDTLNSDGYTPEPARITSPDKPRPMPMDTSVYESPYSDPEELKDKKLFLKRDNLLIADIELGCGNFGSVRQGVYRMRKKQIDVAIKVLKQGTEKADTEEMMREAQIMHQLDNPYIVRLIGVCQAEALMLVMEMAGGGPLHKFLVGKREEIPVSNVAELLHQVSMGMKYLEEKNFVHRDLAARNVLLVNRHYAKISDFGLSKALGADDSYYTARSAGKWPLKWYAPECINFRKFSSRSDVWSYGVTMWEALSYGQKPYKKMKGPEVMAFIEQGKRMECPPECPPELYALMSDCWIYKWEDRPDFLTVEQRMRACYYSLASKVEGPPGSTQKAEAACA
Assay: DELFIA assay (ZAP-70 kinase, phosphorylation of biotinylated poly(glu,tyr))
Format: biochemical
Conditions: ZAP-70 DELFIA, class symbols; read-out: Activity (IC50 in vitro)
In short: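 3.1 nM ZAP-70 pre-incubated 10 min at room temperature with compound ([…]) and 62.5 nM biotinylated poly(glu,tyr) in 62.5 mM Mops pH 7.0, 12.5 mM MgCl2, 12.5% glycerol, 6.25% DMSO (pre-incubation concentrations); ATP added from 5 mM stock, 30 min reaction, EDTA stop. Phosphorylation read by DELFIA europium anti-phosphotyrosine fluorescence (340/615).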

Row | Structure (SMILES) | IC50 [µM]
1 | N#Cc1ccc(-c2ccc3nc(N4CCC(c5cccc(F)c5)C4)cc(C(=O)N4CCC[C@H]4CN4CCCC4)c3c2)cc1 (some centres unmarked) [Compound 263] | > 10
2 | N#Cc1ccc(-c2ccc3nc(N4CCC(c5ccc(F)cc5)C4)cc(C(=O)N4CCC[C@H]4CN4CCCC4)c3c2)cc1 (some centres unmarked) [Compound 264] | > 10
3 | N#Cc1ccc(-c2ccc3nc(N4CCCC(c5ccccc5)C4)cc(C(=O)N4CCC[C@H]4CN4CCCC4)c3c2)cc1 (some centres unmarked) [Compound 265] | > 10
4 | N#Cc1ccc(-c2ccc3nc(N4CCCC(c5ccc(C(F)(F)F)cc5)C4)cc(C(=O)N4CCC[C@H]4CN4CCCC4)c3c2)cc1 (some centres unmarked) [Compound 266] | > 10
5 | N#Cc1ccc(-c2ccc3nc(N4CCCC(c5ccccc5F)C4)cc(C(=O)N4CCC[C@H]4CN4CCCC4)c3c2)cc1 (some centres unmarked) [Compound 267] | > 10
6 | N#Cc1ccc(-c2ccc3nc(N4CCCC(c5cccc(F)c5)C4)cc(C(=O)N4CCC[C@H]4CN4CCCC4)c3c2)cc1 (some centres unmarked) [Compound 268] | > 10
7 | N#Cc1ccc(-c2ccc3nc(N4CCCC(c5cccc(C(F)(F)F)c5)C4)cc(C(=O)N4CCC[C@H]4CN4CCCC4)c3c2)cc1 (some centres unmarked) [Compound 269] | > 10
8 | N#Cc1ccc(-c2ccc3nc(NCc4cccs4)cc(C(=O)N4CCC[C@H]4CN4CCCC4)c3c2)cc1 [Compound 270] | > 10
9 | Cc1ccsc1CNc1cc(C(=O)N2CCC[C@H]2CN2CCCC2)c2cc(-c3ccc(C#N)cc3)ccc2n1 [Compound 271] | > 10
10 | N#Cc1ccc(-c2ccc3nc(NCC4(c5cccs5)CC4)cc(C(=O)N4CCC[C@H]4CN4CCCC4)c3c2)cc1 [Compound 272] | > 10
11 | CN(CCc1cccs1)c1cc(C(=O)N2CCC[C@H]2CN2CCCC2)c2cc(-c3ccc(C#N)cc3)ccc2n1 [Compound 273] | > 10
12 | O=C(c1cc(CCc2ccccc2)nc(CCc2ccccc2)c1)N1CCC[C@H]1CN1CCCC1 [Compound 274] | > 10
13 | CN(Cc1ccccc1)c1cc(C(=O)N2CCC[C@H]2CN2CCCC2)cc(-c2ccccc2)n1 [Compound 275] | > 10
14 | CN(Cc1ccccc1)c1cc(C(=O)N2CCC[C@H]2CN2CCCC2)cc(-c2ccc3c(c2)OCO3)n1 [Compound 276] | > 10
15 | CCCCCCc1cc(C(=O)N2CCC[C@H]2CN2CCCC2)cc(N(C)Cc2ccccc2)n1 [Compound 277] | > 10
16 | CN(Cc1ccccc1)c1cc(C(=O)N2CCC[C@H]2CN2CCCC2)cc(/C=C/c2ccc(C(F)(F)F)cc2)n1 [Compound 278] | > 10
17 | CN(Cc1ccccc1)c1cc(C(=O)N2CCC[C@H]2CN2CCCC2)cc(/C=C/c2ccccc2)n1 [Compound 279] | > 10
18 | CCCCc1ccc2nc(NCc3ccc(C(F)(F)F)cc3)cc(C(=O)N3CCC[C@H]3CN3CCCC3)c2c1 [Compound 291] | > 10
19 | CC(=O)Nc1cccc(-c2ccc3nc(NCc4ccc(C(F)(F)F)cc4)cc(C(=O)N4CCC[C@H]4CN4CCCC4)c3c2)c1 [Compound 297] | > 10

Continued, values first:

Row | IC50 [µM] | Structure (SMILES)
20 | > 10 | N#Cc1ccc(-c2ccc3nc(NCc4ccc(-c5ccccc5)cc4)cc(C(=O)N4CCC[C@H]4CN4CCCC4)c3c2)cc1 [Compound 252]
21 | > 10 | N#Cc1ccc(-c2ccc3nc(N4CCCC4Cc4ccccc4)cc(C(=O)N4CCC[C@H]4CN4CCCC4)c3c2)cc1 (some centres unmarked) [Compound 253]
22 | > 10 | N#Cc1ccc(-c2ccc3nc(N4CCC(c5ccccc5)C4)cc(C(=O)N4CCC[C@H]4CN4CCCC4)c3c2)cc1 (some centres unmarked) [Compound 254]
23 | > 10 | N#Cc1ccc(-c2ccc3nc(N4CCOC(c5ccccc5)C4)cc(C(=O)N4CCC[C@H]4CN4CCCC4)c3c2)cc1 (some centres unmarked) [Compound 255]
24 | > 10 | N#Cc1ccc(-c2ccc3nc(N4CCSC(c5ccccc5)C4)cc(C(=O)N4CCC[C@H]4CN4CCCC4)c3c2)cc1 (some centres unmarked) [Compound 256]
25 | > 10 | N#Cc1ccc(-c2ccc3nc(N4CCCC4c4ccccc4)cc(C(=O)N4CCC[C@H]4CN4CCCC4)c3c2)cc1 (some centres unmarked) [Compound 257]
26 | > 10 | N#Cc1ccc(-c2ccc3nc(N4CCC[C@@H]4c4ccccc4Cl)cc(C(=O)N4CCC[C@H]4CN4CCCC4)c3c2)cc1 [Compound 258]
27 | > 10 | N#Cc1ccc(-c2ccc3nc(N4CCCC4c4ccc(Cl)cc4)cc(C(=O)N4CCC[C@H]4CN4CCCC4)c3c2)cc1 (some centres unmarked) [Compound 259]
28 | > 10 | N#Cc1ccc(-c2ccc3nc(NCC4(c5ccc(Cl)cc5)CC4)cc(C(=O)N4CCC[C@H]4CN4CCCC4)c3c2)cc1 [Compound 260]
29 | > 10 | N#Cc1ccc(-c2ccc3nc(N4CCC(c5ccc(Cl)cc5)C4)cc(C(=O)N4CCC[C@H]4CN4CCCC4)c3c2)cc1 (some centres unmarked) [Compound 261]
30 | > 10 | N#Cc1ccc(-c2ccc3nc(N4CCC(c5ccccc5F)C4)cc(C(=O)N4CCC[C@H]4CN4CCCC4)c3c2)cc1 (some centres unmarked) [Compound 262]
31 | < 1 | O=C(c1cc(NCc2ccc(C(F)(F)F)cc2)nc2ccc(-c3ccc4c(c3)OCC4)cc12)N1CCC[C@H]1CN1CCCC1 [Compound 280]
32 | < 1 | O=C(c1cc(NCc2ccc(C(F)(F)F)cc2)nc2ccc(C#Cc3ccccc3)cc12)N1CCC[C@H]1CN1CCCC1 [Compound 281]
33 | 1 to 10 | COc1ccc(C#Cc2ccc3nc(NCc4ccc(C(F)(F)F)cc4)cc(C(=O)N4CCC[C@H]4CN4CCCC4)c3c2)cc1 [Compound 282]
34 | < 1 | O=C(c1cc(NCc2ccc(C(F)(F)F)cc2)nc2ccc(C#Cc3ccc(Cl)cc3)cc12)N1CCC[C@H]1CN1CCCC1 [Compound 283]
35 | < 1 | O=C(c1cc(NCc2ccc(C(F)(F)F)cc2)nc2ccc(C#Cc3cccc(C(F)(F)F)c3)cc12)N1CCC[C@H]1CN1CCCC1 [Compound 284]
36 | 1 to 10 | O=C(c1cc(NCc2ccc(C(F)(F)F)cc2)nc2ccc(CCc3ccccc3)cc12)N1CCC[C@H]1CN1CCCC1 [Compound 285]
37 | < 1 | O=C(c1cc(NCc2ccc(C(F)(F)F)cc2)nc2ccc(/C=C/c3ccc(Cl)cc3)cc12)N1CCC[C@H]1CN1CCCC1 [Compound 286]
38 | 1 to 10 | O=C(c1cc(NCc2ccc(C(F)(F)F)cc2)nc2ccc(CCc3ccc(Cl)cc3)cc12)N1CCC[C@H]1CN1CCCC1 [Compound 287]
39 | 1 to 10 | O=C(c1cc(NCc2ccc(C(F)(F)F)cc2)nc2ccc(/C=C/c3cccc(C(F)(F)F)c3)cc12)N1CCC[C@H]1CN1CCCC1 [Compound 288]
40 | 1 to 10 | O=C(c1cc(NCc2ccc(C(F)(F)F)cc2)nc2ccc(CCc3cccc(C(F)(F)F)c3)cc12)N1CCC[C@H]1CN1CCCC1 [Compound 289]
41 | 1 to 10 | O=C(c1cc(NCc2ccc(C(F)(F)F)cc2)nc2ccc(/C=C/c3ccccc3)cc12)N1CCC[C@H]1CN1CCCC1 [Compound 290]
42 | < 1 | O=C(c1cc(NCc2ccc(C(F)(F)F)cc2)nc2ccc(-c3cc(Cl)cc(Cl)c3)cc12)N1CCC[C@H]1CN1CCCC1 [Compound 292]
43 | 1 to 10 | O=C(c1cc(NCc2ccc(C(F)(F)F)cc2)nc2ccc(-c3cccs3)cc12)N1CCC[C@H]1CN1CCCC1 [Compound 293]
44 | < 1 | O=C(c1cc(NCc2ccc(C(F)(F)F)cc2)nc2ccc(-c3ccsc3)cc12)N1CCC[C@H]1CN1CCCC1 [Compound 294]
45 | 1 to 10 | O=C(c1cc(NCc2ccc(C(F)(F)F)cc2)nc2ccc(-c3cccc(C(F)(F)F)c3)cc12)N1CCC[C@H]1CN1CCCC1 [Compound 295]
46 | 1 to 10 | O=C(c1cc(NCc2ccc(C(F)(F)F)cc2)nc2ccc(-c3ccc(C(F)(F)F)cc3)cc12)N1CCC[C@H]1CN1CCCC1 [Compound 296]
47 | 1 to 10 | O=C(c1cc(NCc2ccc(C(F)(F)F)cc2)nc2ccc(-c3cc4ccccc4s3)cc12)N1CCC[C@H]1CN1CCCC1 [Compound 298]
